Counter-ions that a name gives are not always drawn. Bounds are passed on as bounds.

Protein Kinase C beta 2 (PKCβII), sequence (P05771 other isoform, or with tags, fused parts or gaps): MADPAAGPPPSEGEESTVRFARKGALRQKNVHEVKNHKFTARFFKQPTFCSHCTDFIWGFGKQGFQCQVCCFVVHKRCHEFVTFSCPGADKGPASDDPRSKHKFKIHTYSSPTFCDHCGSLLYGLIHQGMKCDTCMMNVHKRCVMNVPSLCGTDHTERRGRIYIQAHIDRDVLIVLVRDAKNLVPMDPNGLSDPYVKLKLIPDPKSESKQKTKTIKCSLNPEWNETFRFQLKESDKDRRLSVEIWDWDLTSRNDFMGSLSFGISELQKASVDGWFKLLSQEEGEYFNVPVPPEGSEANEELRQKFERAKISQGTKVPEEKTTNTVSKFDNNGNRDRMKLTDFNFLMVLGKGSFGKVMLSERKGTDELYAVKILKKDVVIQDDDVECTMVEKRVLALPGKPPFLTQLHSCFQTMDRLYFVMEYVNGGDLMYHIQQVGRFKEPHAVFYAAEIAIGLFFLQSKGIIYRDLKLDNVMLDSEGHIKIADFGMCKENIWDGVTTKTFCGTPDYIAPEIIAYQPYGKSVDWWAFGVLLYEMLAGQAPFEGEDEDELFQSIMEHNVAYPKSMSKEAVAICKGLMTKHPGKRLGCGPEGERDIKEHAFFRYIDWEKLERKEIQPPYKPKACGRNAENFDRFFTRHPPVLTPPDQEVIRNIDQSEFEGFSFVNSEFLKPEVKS

This assay addresses Protein Kinase C beta 2 (PKCβII) (Homo sapiens (Human), UniProt P05771). Nature of the assay: PKCβII coupled spectrophotometric kinase assay (PK/LDH, NADH absorbance at 340 nm). Format: biochemical. The conditions noted are these: apparent Ki, ATP competitive inhibition model (Morrison equation); 0.1 mM ATP, 5 nM PKC, 30° C.; read-out: Ki app. On the procedure:
Protein Kinase C beta 2 (PKCβII) catalyzes the production of ADP from ATP that accompanies the phosphoryl transfer to the PKC Pseudosubstrate peptide (A→S, RFARKGSLRQKNV). This transfer is coupled to the oxidation of β-NADH through the activities of Pyruvate Kinase (PK) and Lactate Dehydrogenase (LDH). β-NADH conversion to NAD+ is monitored by the decrease in absorbance at 340 nm (e=6.22 cm^−1 mM^−1) using a Molecular Devices SPECTRA max PLUS spectrophotometer.
A typical assay was carried out on a 96-well, clear microtiter plate in a Molecular Devices spectrophotometer for 20 minutes at 30° C. in 0.1 mL of assay buffer containing 50 mM HEPES, pH 7.4, 5 nM PKC, 23 units of pyruvate kinase, 33 units of lactate dehydrogenase, 0.15 mM peptide, 0.1 mM ATP, 1 mM DTT, 4 mM PEP, 8 mM MgCl2, 0.3 mM NADH, 60 mM CaCl2, 10 mg/mL PS, 50 ng/mL PMA, 7.5% DMSO and from about 10,000 nM to 0.169 nM compound inhibitor. Stock solutions of 3-sn-phosphatidyl-L-serine (PS) and phorbol-12-myristate-13-acetate (PMA) were sonicated for 30 seconds just prior to addition to assay buffer and assays were initiated by the addition of 100 μM ATP.
Steady-state kinetic parameters for the bi-bi kinase reaction were determined at saturating phospho-acceptor peptide substrate concentration (0.15 mM) by fitting initial velocity data to the Michaelis-Menten equation, v=Vmax[S]/(KM+[S]) where v is the measured initial velocity, Vmax is the maximal enzyme velocity, [S] is the ATP substrate concentration, and KM is the Michealis constant for ATP. Enzyme turnover values (kcat) were calculated according to […], where [E] is the total enzyme concentration. Enzyme inhibition constants (apparent Ki values) were determined by fitting initial velocities at variable inhibitor concentrations to a model for ATP competitive inhibition based on the Morrison equation). Morrison, J. F., Biochim. Biophys Acta 185: 269-286 (1969).
On to `CCc1ncc(F)c(Nc2n[nH]c3c2CN(C(=O)N2C[C@@H](C)N(C)C[C@@H]2C)C3(C)C)n1` [Example E1, N-(2-ethyl-5-fluoropyrimidin-4-yl)-6,6-dimethyl-5-{[(2S,5R)-2,4,5-trimethylpiperazin-1-yl]carbonyl}-1,4,5,6-tetrahydropyrrolo[3,4-c]pyrazol-3-amine acetate salt], for which the Ki worked out at 10.5 nM.

In the case of `COc1ncc(F)c(Nc2n[nH]c3c2CN(C(=O)N2CC(CCO)N(C)C[C@@H]2C)C3(C)C)n1` (single isomer, unassigned) [Example K25], the Ki was 36.5 nM.

For the molecule `CCOc1ncc(F)c(Nc2n[nH]c3c2CN(C(=O)N2CCN(C)[C@H](C)C2)C3(C)C)n1` [Example K17, 5-{[(3R)-3,4-dimethylpiperazin-1-yl]carbonyl}-N-(2-ethoxy-5-fluoropyrimidin-4-yl)-6,6-dimethyl-1,4,5,6-tetrahydropyrrolo[3,4-c]pyrazol-3-amine], the Ki came out at 44.4 nM.

As to `Cc1ncc(F)c(Nc2n[nH]c3c2CN(C(=O)N2CC4(CCCC4)N(C)C[C@@H]2C)C3(C)C)n1` [Example A10, 5-{[(8S)-6,8-dimethyl-6,9-diazaspiro[4.5]dec-9-yl]carbonyl}-N-(5-fluoro-2-methylpyrimidin-4-yl)-6,6-dimethyl-1,4,5,6-tetrahydropyrrolo[3,4-c]pyrazol-3-amine], the Ki amounted to 1.01 nM.

Regarding `Cc1ccc(F)c(Nc2n[nH]c3c2CN(C(=O)N2CC(C)(C)N(C)C[C@@H]2C)C3(C)C)n1` [Example J6, N-(3-fluoro-6-methylpyridin-2-yl)-6,6-dimethyl-5-{[(2S)-2,4,5,5-tetramethylpiperazin-1-yl]carbonyl}-1,4,5,6-tetrahydropyrrolo[3,4-c]pyrazol-3-amine], the Ki was 1.17 nM.

With `CCc1ncc(F)c(Nc2n[nH]c3c2CN(C(=O)N2CC(CCO)N(C)C[C@@H]2C)C3(C)C)n1` (stereo partly drawn) [Example E5, 2-((5S)-4-{[3-[(2-ethyl-5-fluoropyrimidin-4-yl)amino]-6,6-dimethyl-4,6-dihydropyrrolo[3,4-c]pyrazol-5(1H)-yl]carbonyl}-1,5-dimethylpiperazin-2-yl)ethanol], the Ki is less than 10 nM.

With `CCN1C[C@H](C)N(C(=O)N2Cc3c(Nc4nc(C)nc(C)c4F)n[nH]c3C2(C)C)C[C@H]1C` [AA3, 5-{[(2S,5R)-4-ethyl-2,5-dimethylpiperazin-1-yl]carbonyl}-N-(5-fluoro-2,6-dimethylpyrimidin-4-yl)-6,6-dimethyl-1,4,5,6-tetrahydropyrrolo[3,4-c]pyrazol-3-amine], the Ki amounted to 14.8 nM.

With `C[C@H]1CN(C)C(C)(C)CN1C(=O)N1Cc2c(Nc3nc(NC4CC4)ncc3F)n[nH]c2C1(C)C` [Example A5, N2-cyclopropyl-N4-(6,6-dimethyl-5-{[(2S)-2,4,5,5-tetramethylpiperazin-1-yl]carbonyl}-1,4,5,6-tetrahydropyrrolo[3,4-c]pyrazol-3-yl)-5-fluoropyrimidine-2,4-diamine], the Ki is 3.95 nM.

`CCNc1ncc(F)c(Nc2n[nH]c3c2CN(C(=O)N2C[C@@H](C)N(C4CCOCC4)C[C@@H]2C)C3(C)C)n1` [Example A12, N^4-(5-{[(2S,5R)-2,5-dimethyl-4-(tetrahydro-2H-pyran-4-yl)piperazin-1-yl]carbonyl}-6,6-dimethyl-1,4,5,6-tetrahydropyrrolo[3,4-c]pyrazol-3-yl)-N^2-ethyl-5-fluoropyrimidine-2,4-diamine]: the Ki was less than 10 nM.

Turning to `Cc1cccc(Nc2n[nH]c3c2CN(C(=O)N2C[C@]4(C)CCCN4C[C@@H]2C)C3(C)C)n1` [Example J7, 5-{[(3S,8aS)-3,8a-dimethylhexahydropyrrolo[1,2-a]pyrazin-2(1H)-yl]carbonyl}-6,6-dimethyl-N-(6-methylpyridin-2-yl)-1,4,5,6-tetrahydropyrrolo[3,4-c]pyrazol-3-amine], the Ki was 111 nM.

Regarding `CCOc1ncc(F)c(Nc2n[nH]c3c2CN(C(=O)C2CCN(CCC(F)(F)F)CC2)C3(C)C)n1` [Example L5, N-(2-ethoxy-5-fluoropyrimidin-4-yl)-6,6-dimethyl-5-{[1-(3,3,3-trifluoropropyl)piperidin-4-yl]carbonyl}-1,4,5,6-tetrahydropyrrolo[3,4-c]pyrazol-3-amine], the Ki amounted to 129 nM.

On to `Cc1ncc(F)c(Nc2n[nH]c3c2CN(C(=O)N2C[C@H](C)N(C)C[C@@H]2C)C3(C)C)n1` [AA4, 2(S),5(S)-{[dimethyl-4-methylpiperazin-1-yl]carbonyl}-N-(5-fluoro-2-methylpyrimidin-4-yl)-6,6-dimethyl-1,4,5,6-tetrahydropyrrolo[3,4-c]pyrazol-3-amine], for which the Ki was determined as 147 nM.

As to `CC[C@H]1CN(C(=O)N2Cc3c(Nc4nc(C)ncc4F)n[nH]c3C2(C)C)CCN1C` [Example H4, 5-{[(3S)-3-ethyl-4-methylpiperazin-1-yl]carbonyl}-N-(5-fluoro-2-methylpyrimidin-4-yl)-6,6-dimethyl-1,4,5,6-tetrahydropyrrolo[3,4-c]pyrazol-3-amine], the Ki came out at 86 nM.

In the case of `C[C@H]1CN(C)C(C)(C)CN1C(=O)N1Cc2c(Nc3nc(N(C)C)ncc3F)n[nH]c2C1(C)C` [Example A2, N^4-(6,6-dimethyl-5-{[(2S)-2,4,5,5-tetramethylpiperazin-1-yl]carbonyl}-1,4,5,6-tetrahydropyrrolo[3,4-c]pyrazol-3-yl)-5-fluoro-N^2,N^2-dimethylpyrimidine-2,4-diamine], the Ki was 8.75 nM.

`CCNc1ncc(F)c(Nc2n[nH]c3c2CN(C(=O)N2C[C@@H](C)N(CCC(F)(F)F)C[C@@H]2C)C3(C)C)n1` [Example B5, N4-(5-{[(2S,5R)-2,5-dimethyl-4-(3,3,3-trifluoropropyl)piperazin-1-yl]carbonyl}-6,6-dimethyl-1,4,5,6-tetrahydropyrrolo[3,4-c]pyrazol-3-yl)-N2-ethyl-5-fluoropyrimidine-2,4-diamine]: the Ki was determined as 29.8 nM.

With `Cc1ccnc(Nc2n[nH]c3c2CN(C(=O)N2C[C@@H](C)N(C4CCOCC4)C[C@@H]2C)C3(C)C)n1` [Example J12, 5-{[(2S,5R)-2,5-dimethyl-4-(tetrahydro-2H-pyran-4-yl)piperazin-1-yl]carbonyl}-6,6-dimethyl-N-(4-methylpyrimidin-2-yl)-1,4,5,6-tetrahydropyrrolo[3,4-c]pyrazol-3-amine], the Ki is less than 10 nM.

Regarding `CCNc1ncc(F)c(Nc2n[nH]c3c2CN(C(=O)N2C[C@@H]4CCCN4C[C@@H]2C)C3(C)C)n1` [Example B2, N^4-(6,6-dimethyl-5-{[(3S,8aS)-3-methylhexahydropyrrolo[1,2-a]pyrazin-2(1H)-yl]carbonyl}-1,4,5,6-tetrahydropyrrolo[3,4-c]pyrazol-3-yl)-N^2-ethyl-5-fluoropyrimidine-2,4-diamine], the Ki came out at 24.5 nM.

In the case of `CCOc1ncc(F)c(Nc2n[nH]c3c2CN(C(=O)N2CC(CCO)N(C)C[C@@H]2C)C3(C)C)n1` (stereo partly drawn) [Example K23, 2-((5S)-4-{[3-[(2-ethoxy-5-fluoropyrimidin-4-yl)amino]-6,6-dimethyl-4,6-dihydropyrrolo[3,4-c]pyrazol-5(1H)-yl]carbonyl}-1,5-dimethylpiperazin-2-yl)ethanol], the Ki was less than 10 nM.

As for `COCCCN1C[C@H](C)N(C(=O)N2Cc3c(Nc4nc(OCC(F)(F)F)ncc4F)n[nH]c3C2(C)C)C[C@H]1C` [Example K6, N-[5-fluoro-2-(2,2,2-trifluoroethoxy)pyrimidin-4-yl]-5-{[(2S,5R)-4-(3-methoxypropyl)-2,5-dimethylpiperazin-1-yl]carbonyl}-6,6-dimethyl-1,4,5,6-tetrahydropyrrolo[3,4-c]pyrazol-3-amine], the Ki was determined as 0.376 nM.

In the case of `Cc1ccnc(Nc2n[nH]c3c2CN(C(=O)N2C[C@@H](C)N(CC4CCOCC4)C[C@@H]2C)C3(C)C)n1` [Example J15, 5-{[(2S,5R)-2,5-dimethyl-4-(tetrahydro-2H-pyran-4-ylmethyl)piperazin-1-yl]carbonyl}-6,6-dimethyl-N-(4-methylpyrimidin-2-yl)-1,4,5,6-tetrahydropyrrolo[3,4-c]pyrazol-3-amine], the Ki was less than 10 nM.

For `CC[C@@H]1CN(C(=O)N2Cc3c(Nc4nc(C)ncc4F)n[nH]c3C2(C)C)CCN1C` [Example H5, 5-{[(3R)-3-ethyl-4-methylpiperazin-1-yl]carbonyl}-N-(5-fluoro-2-methylpyrimidin-4-yl)-6,6-dimethyl-1,4,5,6-tetrahydropyrrolo[3,4-c]pyrazol-3-amine], the Ki was found to be 50.8 nM.

As to `Cc1ccc(F)c(Nc2n[nH]c3c2CN(C(=O)N2C[C@]4(C)CCCN4C[C@@H]2C)C3(C)C)n1` [Example J4, 5-{[(3S,8aS)-3,8a-dimethylhexahydropyrrolo[1,2-a]pyrazin-2(1H)-yl]carbonyl}-N-(3-fluoro-6-methylpyridin-2-yl)-6,6-dimethyl-1,4,5,6-tetrahydropyrrolo[3,4-c]pyrazol-3-amine], the Ki worked out at 8.64 nM.

These data come from patent US9518060B2, “Substituted pyrrolo[3,4-c]pyrazoles as PKC kinase inhibitors” (PFIZER INC., priority 2007, dated 2016).
